In patent US7420083B2, “Substituted aryloximes” (Wyeth, priority 2003, dated 2008):

Experiments:
[1] = target: T1, recombinant human plasminogen activator inhibitor-1 (PAI-1) (Homo sapiens, UniProt P05121); experiment: Screening for PAI-1 inhibition (chromogenic tPA activity assay, Spectrozyme-tPA); type: biochemical; details: for IC50: footnote b: IC50 determined by a modification of the Primary Screen for PAI-1 Inhibition
T1 construct: purchased Molecular Innovations, Royal Oak, Mich
Experimental: Screening for PAI-1 inhibition. Test compounds are dissolved in DMSO at a final concentration of 10 mM, then diluted 100×in physiologic buffer. The inhibitory assay is initiated by the addition of the test compound (1-100 μM final concentration, maximum DMSO concentration of 0.2%) in a pH 6.6 buffer containing 140 nM recombinant human plasminogen activator inhibitor-1 (PAI-1; Molecular Innovations, Royal Oak, Mich.). Following a 1 hour incubation at room temperature, 70 nM of recombinant human tissue plasminogen activator (tPA) is added, and the combination of the test compound, PAI-1 and tPA is incubated for an additional 30 minutes. Following the second incubation, Spectrozyme-tPA (American Diagnostica, Greenwich, Conn.), a chromogenic substrate for tPA, is added and absorbance read at 405 nm at 0 and 60 minutes. Relative PAI-1 inhibition is equal to the residual tPA activity in the presence of the test compounds and PAI-1. Control treatments include the complete inhibition of tPA by PAI-1 at the molar ratio employed (2:1), and the absence of any effect of the test compound on tPA alone.

[2] = PAI-1 inhibition at 25 μM test compound, pH 6.6 buffer, 140 nM PAI-1, 70 nM tPA

T1 sequence (P05121 24-402): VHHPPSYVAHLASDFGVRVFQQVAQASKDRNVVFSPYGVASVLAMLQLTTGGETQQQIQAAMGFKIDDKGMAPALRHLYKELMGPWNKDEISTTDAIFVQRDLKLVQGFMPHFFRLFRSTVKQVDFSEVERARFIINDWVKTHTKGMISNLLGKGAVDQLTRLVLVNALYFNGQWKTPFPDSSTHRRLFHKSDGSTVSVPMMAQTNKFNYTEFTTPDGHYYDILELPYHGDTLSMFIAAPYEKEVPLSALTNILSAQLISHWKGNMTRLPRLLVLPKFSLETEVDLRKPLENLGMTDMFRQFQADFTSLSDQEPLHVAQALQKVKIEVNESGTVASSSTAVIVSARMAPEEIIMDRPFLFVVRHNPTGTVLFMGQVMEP

Compound | IC50 [1] [µM] | melting point [°C] | inhibition at 25 µM [1, 2] [%] | % Inhibition @ 25 μM [1, 2] [%]
C/C(=N\OCCOc1ccc(C(=O)O)cc1Cl)c1ccc(C(C)(C)C)cc1 [Compound 12, 4-{2-[({(E)-1-[4-(tert-Butyl)phenyl]ethylidene}amino)oxy]-ethoxy}-3-chloro-benzoic Acid] | 11.2 | 167.1 to 168.8 | – | –
CC(=NOCCCOc1ccc(CC(=O)O)cc1)c1ccc(C(C)(C)C)cc1 [Compound 1, (4-{3-[1-(4-tert-Butyl-phenyl)-ethylideneaminooxy]-propoxy}-phenyl)-acetic Acid] | – | 98.7 to 99.7 | 39 | –
O=C(Nc1cc(OCCCO/N=C/c2ccc(-c3ccccc3)cc2)ccc1C(=O)O)c1ccc(C(F)(F)F)cc1 [Compound 20, 4-[3-({[(1E)-1,1′-Biphenyl-4-ylmethylidene]amino}oxy)propoxy]-2-{[4-(trifluoromethyl)benzoyl]amino}benzoic Acid] | 25.7 | 205.6 to 206.6 | – | –
CC(C)(C)c1ccc(/C=N/OCCCOc2ccc(C(=O)O)c(NC(=O)c3ccc(-c4ccccc4)cc3)c2)cc1 [Compound 36, 2-[(1,1′-Biphenyl-4-ylcarbonyl)amino]-4-[3-({[(1E)-(4-tert-butylphenyl)methylidene]amino}oxy)propoxy]benzoic Acid] | – | 155 to 158.5 | 23 | –
CC(C)(C)c1ccc(/C=N/OCCCOc2ccc(C(=O)O)c(NC(=O)/C=C/c3ccc(-c4ccccc4)cc3)c2)cc1 [Compound 35, 2-{[(2E)-3-(1,1′-Biphenyl-4-yl)prop-2-enoyl]amino}-4-[3-({[(1E)-(4-tert-butylphenyl)methylidene]amino}oxy)propoxy]-benzoic Acid] | – | 169 to 171 | 16 | –
CC(C)(C)c1ccc(C=NOCc2ccc(CC(=O)O)cc2)cc1 [Compound 3, [4-(4-tert-Butyl-benzylideneaminooxymethyl]-phenyl}-acetic Acid] | – | 93.3 to 96.2 | 19 | –
CC(C)(C)c1ccc(C=NOCCCOc2ccc(Cc3nnn[nH]3)cc2)cc1 [Compound 17, 4-(tert-Butyl)benzaldehyde 0-{3-[4-(1H-tetraazol-5-ylmethyl)-phenoxy]-propyl}oxime] | – | – | – | 35
C/C(=N\OCCOc1ccc(C(=O)O)c(Cl)c1)c1ccc(C(C)(C)C)cc1 [Compound 13, 4-{2-[({(E)-1-[4-(tert-Butyl)phenyl]ethylidene}amino)oxy]-ethoxy}-2-chloro-benzoic Acid] | – | 142.7 to 143.9 | 34 | –
CC(C)(C)c1ccc(/C=N/OCCCOc2ccc(C(=O)O)c(NC(=O)c3ccc(C(C)(C)C)cc3)c2)cc1 [Compound 18, 2-{[4-(tert-Butyl)benzoyl]amino}-4-{3-[({(E)-[4-(tert-butyl)phenyl]methylidene}amino)oxy]propoxy}benzoic Acid] | 18.5 | 192.3 to 193.8 | – | –
COc1ccc(C(=O)Oc2cc(OCCO/N=C/c3ccc(C(C)(C)C)cc3)ccc2C(=O)O)cc1 [Compound 9, 4-{2-[({(E)-[4-(tert-Butyl)phenyl]methylidene}amino)oxy]ethoxy}-2-[(4-methoxybenzoyl)oxy]benzoic Acid] | 25.6 | 115.5 to 117.5 | – | –
O=C(O)c1ccc(OCCCO/N=C/c2ccc(-c3ccccc3)cc2)cc1NC(=O)c1ccccc1C(F)(F)F [Compound 26, 4-[3-({[(1E)-1,1′-biphenyl-4-ylmethylidene]amino}oxy)propoxy]-2-{[2-(trifluoromethyl)benzoyl]amino}benzoic Acid] | – | 170.5 to 172.5 | 24 | –
CC(C)(C)c1ccc(C=NOCCOc2ccc(C(=O)O)c(OCc3ccc(C(F)(F)F)cc3)c2)cc1 [Compound 14, 4-{2-[({[4-(tert-Butyl)phenyl]methylidene}amino)oxy]ethoxy}-2-{[4-(trifluoromethyl)benzyl]oxy}benzoic acid] | – | 164.1 to 164.8 | 28 | –
CC(C)(C)c1ccc(/C=N/OCCCOc2ccc(C(=O)O)c(NC(=O)c3ccc4ccccc4c3)c2)cc1 [Compound 34, 4-[3-({[(1E)-(4-tert-Butylphenyl)methylidene]amino}oxy)propoxy]-2-(2-naphthoylamino)benzoic Acid] | – | 156 to 158 | 14 | –
CC(C)(C)c1ccc(/C=N/OCCOc2ccc(C(=O)O)c(OC(=O)c3ccc(C(F)(F)F)cc3)c2)cc1 [Compound 8, 4-{2-[({(E)-[4-(tert-Butyl)phenyl]methylidene}amino)oxy]ethoxy}-2-{[4-(trifluoromethyl)benzoyl]oxy}benzoic Acid] | – | 146.3 to 147.9 | 1 | –
CC(C)(C)c1ccc(/C=N/OCCCOc2ccc(CCC(=O)O)cc2)cc1 [Compound 16, 3-(4-{3-[({(E)-[4-(tert-butyl)phenyl]methylidene}amino)oxy]propoxy}phenyl)propanoic Acid] | – | 101.2 to 102.1 | 42 | –
C/C(=N\OCCCOc1ccc(C(=O)O)c(NC(=O)c2ccc(C(F)(F)F)cc2)c1)c1ccccc1 [Compound 23, 4-[3-({[(1E)-1-Phenylethylidene]amino}oxy)propoxy]-2-{[4-(trifluoromethyl)benzoyl]amino}benzoic acid] | – | 174.3 to 175.7 | 26 | –
O=C(Nc1cc(OCCCO/N=C/c2ccc(-c3ccccc3)cc2)ccc1C(=O)O)c1ccc(OC(F)(F)F)cc1 [Compound 29, 4-[3-({[(1E)-1,1′-Biphenyl-4-ylmethylidene]amino}oxy)propoxy]-2-{[4-(trifluoromethoxy)benzoyl]amino}benzoic Acid] | – | 194.5 to 195.5 | 70 | –
O=C(Nc1cc(OCCCO/N=C/c2cc(C(F)(F)F)cc(C(F)(F)F)c2)ccc1C(=O)O)c1ccc(OC(F)(F)F)cc1 [Compound 28, 4-{3-[({(1E)-[3,5-Bis (trifluoromethyl)phenyl]methylidene}amino)oxy]propoxy}-2-{[4-(trifluoromethoxy)benzoyl]amino}benzoic Acid] | – | 184.5 to 185.5 | 51 | –
CC(C)(C)c1ccc(C=NOCCOc2ccc(C(=O)O)c(O)c2)cc1 [Compound 7, 4-{2-[({[4-(tert-Butyl)phenyl]methylidene}amino)oxy]ethoxy}-2-hydroxybenzoic Acid] | – | 161.4 to 162.7 | 33 | –
CC(C)(C)c1ccc(/C=N/OCCOc2ccc(C(=O)O)c(OC(=O)c3ccccc3)c2)cc1 [Compound 11, 2-(Benzoyloxy)-4-{2-[({(E)-[4-(tert-butyl)phenyl]methylidene}amino)oxy]ethoxy}benzoic Acid] | 8.4 | 129.3 to 130.6 | – | –
C/C(=N\OCCOc1ccc(C(=O)O)c(O)c1)c1ccc(C(C)(C)C)cc1 [Compound 5, 4-{2-[({(E)-1-[4-(tert-Butyl)-phenyl]-ethylidene}amino)oxy]-ethoxy}-2-hydroxy-benzoic Acid] | 20.2 | 157.4 to 158.7 | – | –
CC(=NOCc1ccc(CC(=O)O)cc1)c1ccc(C(C)(C)C)cc1 [Compound 2, {4-[1-(4-tert-Butyl-phenyl)-ethylideneaminooxymethyl]-phenyl}-acetic Acid] | – | 148.9 to 150 | 30 | –
